Results: ChEMBL document CHEMBL5120779, “Thiazolidinedione-Based Structure Modification of Celastrol Provides Thiazolidinedione-Conjugated Derivatives as Potent Agents against Non-Small-Cell Lung Cancer Cells through a Mitochondria-Mediated Apoptotic Pathway” (J Nat Prod, 2022)

Legend:
[1] = Selectivity index, ratio of IC50 for human MRC5 cells to IC50 for human A549 cells; format: toxicity; conditions: MRC5 cells and A549 cells, read-out: Ratio IC50
[2] = tested on: A549; experiment: cells; conditions: Homo sapiens, A549, 96 h
Description: Cytotoxicity against human A549 cells assessed as inhibition of cell growth measured after 96 hrs by MTT assay

[3] = Cytotoxicity against human MRC5 cells assessed as inhibition of cell growth measured after 96 hrs by MTT assay; format: toxicity, cell-based
[4] = tested on: A549; experiment: Induction of apoptosis in human A549 cells assessed as late apoptotic cells at 0.5 uM incubated for 48 hrs by Annexin V-FITC/propidium iodide staining based flow cytometry (reference value: 0.82%); format: functional
[5] = tested on: A549; experiment: Induction of apoptosis in human A549 cells assessed as necrotic cells at 0.5 uM incubated for 48 hrs by Annexin V-FITC/propidium iodide staining based flow cytometry (reference value: 3.36%); format: functional
[6] = tested on: A549; experiment: Induction of apoptosis in human A549 cells assessed as viable cells at 0.5 uM incubated for 48 hrs by Annexin V-FITC/propidium iodide staining based flow cytometry (reference value: 95.7%); format: functional; conditions: read-out: Activity
[7] = tested on: A549; experiment: Cytotoxicity against human A549 cells assessed as inhibition of cell proliferation measured after 24 to 72 hrs by MTT assay; format: functional, cell-based; conditions: dose 0.125-2 µM, time 24-72 hrs, DDE = dose-dependent effect
[8] = tested on: A549; experiment: Cytotoxicity against human A549 cells assessed as inhibition of cell proliferation at 0.125 to 2 uM by MTT assay; format: functional, cell-based; conditions: dose 0.125-2 µM, time 24-72 hrs, TDE = time-dependent effect
[9] = tested on: A549; experiment: Induction of apoptosis in human A549 cells assessed as early apoptotic cells at 0.5 uM incubated for 48 hrs by Annexin V-FITC/propidium iodide staining based flow cytometry (reference value: 0.11%); format: functional
[10] = tested on: A549; experiment: Potency index, ratio of celastrol IC50 to test compound IC50 for cytotoxicity against human A549 cells by MTT assay; format: functional

SMILES	selectivity ratio [1]	IC50 [2] [nM]	IC50 at 96 h [3] [nM]	also measured
CC1=C(O)C(=O)C=C2C1=CC=C1[C@@]2(C)CC[C@@]2(C)[C@@H]3C[C@](C)(C(=O)N4CCN(C(=O)CN5C(=O)S/C(=C\c6ccc7c(c6)OCO7)C5=O)CC4)CC[C@]3(C)CC[C@]12C	9.43	350	4000	
CC1=C(O)C(=O)C=C2C1=CC=C1[C@@]2(C)CC[C@@]2(C)[C@@H]3C[C@](C)(C(=O)N4CCN(C(=O)CN5C(=O)S/C(=C\c6cccc(C)c6)C5=O)CC4)CC[C@]3(C)CC[C@]12C	6.01	530	3190	
CC1=C(O)C(=O)C=C2C1=CC=C1[C@@]2(C)CC[C@@]2(C)[C@@H]3C[C@](C)(C(=O)N4CCN(C(=O)CN5C(=O)S/C(=C\c6cccs6)C5=O)CC4)CC[C@]3(C)CC[C@]12C	3.53	360	1270	
CC1=C(O)C(=O)C=C2C1=CC=C1[C@@]2(C)CC[C@@]2(C)[C@@H]3C[C@](C)(C(=O)N4CCN(C(=O)CN5C(=O)CSC5=O)CC4)CC[C@]3(C)CC[C@]12C	3.68	1550	5700	
CC1=C(O)C(=O)C=C2C1=CC=C1[C@@]2(C)CC[C@@]2(C)[C@@H]3C[C@](C)(C(=O)N4CCN(C(=O)CN5C(=O)S/C(=C\C6CCCC6)C5=O)CC4)CC[C@]3(C)CC[C@]12C	18.9	170	3210	
CC1=C(O)C(=O)C=C2C1=CC=C1[C@@]2(C)CC[C@@]2(C)[C@@H]3C[C@](C)(C(=O)N4CCN(C(=O)CN5C(=O)S/C(=C\c6ccc(C)cc6)C5=O)CC4)CC[C@]3(C)CC[C@]12C	4.91	510	2500	
CC1=C(O)C(=O)C=C2C1=CC=C1[C@@]2(C)CC[C@@]2(C)[C@@H]3C[C@](C)(C(=O)N4CCN(C(=O)CN5C(=O)S/C(=C\c6ccc(Br)cc6)C5=O)CC4)CC[C@]3(C)CC[C@]12C	7.27	510	3710	
CC1=C(O)C(=O)C=C2C1=CC=C1[C@@]2(C)CC[C@@]2(C)[C@@H]3C[C@](C)(C(=O)N4CCN(C(=O)CN5C(=O)S/C(=C\c6ccccc6)C5=O)CC4)CC[C@]3(C)CC[C@]12C	6.28	400	2510	
CC1=C(O)C(=O)C=C2C1=CC=C1[C@@]2(C)CC[C@@]2(C)[C@@H]3C[C@](C)(C(=O)O)CC[C@]3(C)CC[C@]12C [CELASTROL]	4	1100	4400	Activity [4]: 6.97%; Activity [5]: 4.6%; viability at 0.5 µM [6]: 87.3%; Activity [7]: Dde; Activity [8]: Tde; Activity [9]: 1.12%
CC1=C(O)C(=O)C=C2C1=CC=C1[C@@]2(C)CC[C@@]2(C)[C@@H]3C[C@](C)(C(=O)N4CCN(C(=O)CN5C(=O)S/C(=C\c6ccco6)C5=O)CC4)CC[C@]3(C)CC[C@]12C	6.18	170	1050	
CC1=C(O)C(=O)C=C2C1=CC=C1[C@@]2(C)CC[C@@]2(C)[C@@H]3C[C@](C)(C(=O)N4CCN(C(=O)CN5C(=O)S/C(=C\C6CCCCC6)C5=O)CC4)CC[C@]3(C)CC[C@]12C	6.56	550	3610	
COc1ccc(/C=C2\SC(=O)N(CC(=O)N3CCN(C(=O)[C@]4(C)CC[C@]5(C)CC[C@]6(C)C7=CC=C8C(=CC(=O)C(O)=C8C)[C@]7(C)CC[C@@]6(C)[C@@H]5C4)CC3)C2=O)cc1	6.38	320	2040	
CC1=C(O)C(=O)C=C2C1=CC=C1[C@@]2(C)CC[C@@]2(C)[C@@H]3C[C@](C)(C(=O)N4CCN(C(=O)CN5C(=O)S/C(=C\C(C)C)C5=O)CC4)CC[C@]3(C)CC[C@]12C	32.6	90	2930	Ratio IC50 [10]: 12.2
CC1=C(O)C(=O)C=C2C1=CC=C1[C@@]2(C)CC[C@@]2(C)[C@@H]3C[C@](C)(C(=O)N4CCN(C(=O)CN5C(=O)S/C(=C\c6cccc(Br)c6)C5=O)CC4)CC[C@]3(C)CC[C@]12C	3.79	1060	4020	
CCCC/C=C1\SC(=O)N(CC(=O)N2CCN(C(=O)[C@]3(C)CC[C@]4(C)CC[C@]5(C)C6=CC=C7C(=CC(=O)C(O)=C7C)[C@]6(C)CC[C@@]5(C)[C@@H]4C3)CC2)C1=O	10.8	320	3440	
CC1=C(O)C(=O)C=C2C1=CC=C1[C@@]2(C)CC[C@@]2(C)[C@@H]3C[C@](C)(C(=O)N4CCN(C(=O)CN5C(=O)S/C(=C\c6ccc(N(C)C)cc6)C5=O)CC4)CC[C@]3(C)CC[C@]12C	5.07	940	4770	
CC1=C(O)C(=O)C=C2C1=CC=C1[C@@]2(C)CC[C@@]2(C)[C@@H]3C[C@](C)(C(=O)N4CCN(C(=O)CN5C(=O)S/C(=C\c6cccc(F)c6)C5=O)CC4)CC[C@]3(C)CC[C@]12C	7.95	400	3180	
COc1cccc(/C=C2\SC(=O)N(CC(=O)N3CCN(C(=O)[C@]4(C)CC[C@]5(C)CC[C@]6(C)C7=CC=C8C(=CC(=O)C(O)=C8C)[C@]7(C)CC[C@@]6(C)[C@@H]5C4)CC3)C2=O)c1	6.61	360	2380	
CC1=C(O)C(=O)C=C2C1=CC=C1[C@@]2(C)CC[C@@]2(C)[C@@H]3C[C@](C)(C(=O)N4CCN(C(=O)CN5C(=O)S/C(=C\c6ccc(F)cc6)C5=O)CC4)CC[C@]3(C)CC[C@]12C	7.43	370	2750	
CC1=C(O)C(=O)C=C2C1=CC=C1[C@@]2(C)CC[C@@]2(C)[C@@H]3C[C@](C)(C(=O)N4CCN(C(=O)CN5C(=O)S/C(=C\c6cccc(Cl)c6)C5=O)CC4)CC[C@]3(C)CC[C@]12C	6.58	480	3160	
CC1=C(O)C(=O)C=C2C1=CC=C1[C@@]2(C)CC[C@@]2(C)[C@@H]3C[C@](C)(C(=O)N4CCN(C(=O)CN5C(=O)S/C(=C\c6ccc(Cl)cc6)C5=O)CC4)CC[C@]3(C)CC[C@]12C	7.33	420	3080	
